Experiments:
Conditions in all cases: after 10, 20, 40 and 60 minutes at all dilutions 1:100 to 1:800
St. Aereus = experiment: Antimicrobial activity by agar dilution, St. Aereus; type: cell-based, Staphylococcus aureus
Method: (§1) The antimicrobial properties of the synthesized compound 9-(2-hydroxyquinolin-3-yl)-10-(2-hydroxyethyl)-3,3,6,6-tetramethyl-3,4,6,7,9,10-hexahydroacridine1,8(2H,5H)-dione were studied by the method of agar dilution. Test solutions of each compound were prepared in a concentration of 1% using dimethylformamide as a solvent. Then they were diluted in a physiological solution to obtain the final experimental dilutions 1:100, 1:200, 1:400, and 1:800. The effect of these substances were compared with furacillin in a controllable study. The testing microbes used were gram positive bacteria St. Aereus, gram negative bacteria E. Coli and Ps. Aeruginosa, and Candida albicans fungi. The experiments used for this survey were meat-pentonlu agar (EPA) for cultivation of bacteria and Saburo environment for fungi. Each experiment used 1 ml of test solution on each plate 500 min. Add 2 drops of emulsified with microbes feel. All experimental samples were taken from the agar after 10, 20, 40, 60 minutes in the environment on the basis of Patrk planted. Bacteria were cultivated at a temperature of 37° C. for 1 day and the mushroom was kept in a thermostat for 2 hours at a temperature of 28° C. Then the results were checked.

E. Coli = experiment: Antimicrobial activity by agar dilution, E. Coli; type: cell-based, Escherichia coli
Method: as §1

Candida albicans = experiment: Antimicrobial activity by agar dilution, Candida albicans; type: cell-based
Method: as §1

Ps. Aeruginosa = experiment: Antimicrobial activity by agar dilution, Ps. Aeruginosa; type: cell-based, Pseudomonas aeruginosa
Method: as §1

Measured: inhibition activity (in words)

CC1(C)CC(=O)C2=C(C1)N(CCO)C1=C(C(=O)CC(C)(C)C1)C2c1cc2ccccc2nc1O [9-(2-hydroxyquinolin-3-yl)-10-(2-hydroxyethyl)-3,3,6,6-tetramethyl-3,4,6,7,9,10-hexahydroacridine1,8(2H,5H)-dione]
highest inhibition activity: all assays above

Reference: patent publication US11970478B1, “9-(2-hydroxyquinolin-3-yl)-10-(2-hydroxyethyl)-3,3,6,6-tetramethyl-3,4,6,7,9,10-hexahydroacridine1,8(2H,5H)-dione as an antimicrobial compound” (KING FAISAL UNIVERSITY, priority 2023, dated 2024)
